10 compounds from BindingDB's records for patent US20250326732 (Pretzel Therapeutics, 2025) can be followed below.

Chain of DNA-directed RNA polymerase, mitochondrial (O00411 whole entry): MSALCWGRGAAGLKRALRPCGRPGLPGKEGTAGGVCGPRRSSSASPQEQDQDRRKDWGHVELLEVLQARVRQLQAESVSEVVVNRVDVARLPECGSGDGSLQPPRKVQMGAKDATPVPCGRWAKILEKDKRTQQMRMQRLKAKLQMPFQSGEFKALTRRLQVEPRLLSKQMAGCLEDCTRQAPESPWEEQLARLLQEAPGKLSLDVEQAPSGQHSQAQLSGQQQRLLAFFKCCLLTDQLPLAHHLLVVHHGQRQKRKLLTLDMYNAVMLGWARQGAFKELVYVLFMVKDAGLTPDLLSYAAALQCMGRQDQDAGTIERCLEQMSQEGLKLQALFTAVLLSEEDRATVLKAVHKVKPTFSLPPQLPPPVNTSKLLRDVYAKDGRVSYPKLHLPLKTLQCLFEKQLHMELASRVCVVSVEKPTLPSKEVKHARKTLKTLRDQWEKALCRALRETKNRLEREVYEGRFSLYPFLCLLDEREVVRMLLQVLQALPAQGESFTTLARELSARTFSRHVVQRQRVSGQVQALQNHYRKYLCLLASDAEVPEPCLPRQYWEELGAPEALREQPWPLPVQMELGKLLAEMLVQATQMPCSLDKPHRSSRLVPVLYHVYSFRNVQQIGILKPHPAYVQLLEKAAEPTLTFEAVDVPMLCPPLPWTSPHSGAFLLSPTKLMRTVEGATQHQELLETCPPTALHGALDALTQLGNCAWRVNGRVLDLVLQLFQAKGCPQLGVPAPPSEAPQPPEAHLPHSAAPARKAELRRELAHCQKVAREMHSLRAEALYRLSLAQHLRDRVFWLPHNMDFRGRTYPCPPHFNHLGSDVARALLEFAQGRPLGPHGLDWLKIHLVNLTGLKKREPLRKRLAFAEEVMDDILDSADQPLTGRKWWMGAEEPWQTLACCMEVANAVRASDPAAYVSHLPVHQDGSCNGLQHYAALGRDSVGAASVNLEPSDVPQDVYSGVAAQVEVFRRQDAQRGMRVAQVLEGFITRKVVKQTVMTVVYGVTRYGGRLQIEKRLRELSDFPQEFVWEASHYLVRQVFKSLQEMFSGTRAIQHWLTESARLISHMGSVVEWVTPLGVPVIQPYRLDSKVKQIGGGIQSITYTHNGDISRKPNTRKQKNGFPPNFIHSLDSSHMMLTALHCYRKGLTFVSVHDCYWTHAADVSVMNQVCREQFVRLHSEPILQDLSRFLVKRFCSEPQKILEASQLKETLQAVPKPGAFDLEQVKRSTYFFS

The experiment has as its target DNA-directed RNA polymerase, mitochondrial (Homo sapiens, UniProt O00411). Kind of experiment: Biological/Biochemical Evaluation. The protocol:
The ability of some compounds of the present invention to inhibit POLRMT were determined in a homogeneous TR-FRET Assay using high-throughput screening in a 384-well plate format. […] Detection of the product is facilitated by hybridization of two DNA-oligonucleotide probes to specific and adjacent sequences within the RNA product sequence. Upon annealing of the probes, two fluorophores are coupled directly to an acceptor nucleotide probe (ATTO647, 5′), or introduced via a coupled streptavidin with a biotinylated donor nucleotide probe (Europium cryptate) that is brought into sufficient proximity to serve as a fluorescence-donor-acceptor pair. […] The DNA template is restriction linearized proximal to the promotor 3′-end (pUC-LSP). […] No nucleotide triphosphate mix is added to negative control samples. Microplates with compounds to be tested in the assay are prepared from 10 mM compound stocks in 100% DMSO, equal amounts of DMSO without any compound are added to positive control and negative control samples.
`CC(=Cc1ccc2c(-c3ccccc3C)cc(=O)oc2c1)C(=O)N(C)C` [US20250326732, Example 65] registered a half-inhibitory concentration (IC50) of 17000 nM. `COC=C(Nc1ccc2c(-c3ccccc3)cc(=O)oc2c1)C(N)=O` [US20250326732, Example 198]: half-maximal inhibition (IC50) was put at 2000 nM. The figure for `CNC(=O)C(C)=Cc1ccc2c(-c3ccccc3C)cc(=O)oc2c1` [US20250326732, Example 66] is 500 nM; for `CNC(=O)C(C)=Cc1ccc2c(-c3ccccc3C)cc(=O)oc2c1` [US20250326732, Example 67] it is 6000 nM; for `C=C(Nc1ccc2c(-c3ccccc3C)cc(=O)oc2c1)C(N)=O` [US20250326732, Example 189] it is 900 nM. For the compound `CN(C=CC(N)=O)c1ccc2c(-c3ccc(F)cc3Cl)cc(=O)oc2c1` [US20250326732, Example 137], 900 nM corresponded to half-maximal inhibition (IC50). The figure for `COC=C(Cc1ccc2c(-c3ccccc3C)cc(=O)oc2c1)C(N)=O` [US20250326732, Example 207] is 17000 nM; for `COC=C(Cc1ccc2c(-c3ccccc3C)cc(=O)oc2c1)C(N)=O` [US20250326732, Example 208] it is 3000 nM; for `CC(=Cc1ccc2c(-c3ccccc3C)cc(=O)oc2c1)C(=O)N(C)C` [US20250326732, Example 64] it is 300 nM.

`CC(=Cc1ccc2c(-c3ccccc3C)cc(=O)oc2c1)C(N)=O` [US20250326732, Example 68] returned an IC50 of 600 nM.

By IC50 is commonly meant the concentration that inhibits the measured activity by half.
